The record followed here is article PMC10735184, “Attractant and repellent induce opposing changes in the four-helix bundle ligand-binding domain of a bacterial chemoreceptor” (PLOS Biology, 2023).

The target in experiment [1] is T1, MCP2201 (Comamonas thiooxydans, UniProt A0ABF7PFR0, T108A).
T1 construct: gene CtCNB1_2201; MCP2201-LBD (residues 58–203), isolated periplasmic domain
The experiment can be described thus: ITC. The format is binding.

Experiment [2] deals with T2, MCP2201 (Comamonas thiooxydans, UniProt A0ABF7PFR0).
T2 construct: gene CtCNB1_2201; MCP2201-LBD (residues 58–203), N-terminal His6-tag
T2 sequence (A0ABF7PFR0 58-203): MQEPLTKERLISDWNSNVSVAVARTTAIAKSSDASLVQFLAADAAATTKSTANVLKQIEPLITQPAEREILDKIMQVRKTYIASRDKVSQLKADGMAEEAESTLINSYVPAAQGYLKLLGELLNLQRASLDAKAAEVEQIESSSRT
The experiment can be described thus: ITC; crystal structure at […] Å; analytical ultracentrifugation. It counts as binding.

As usually defined, the Kd is the concentration at which binding is half-saturated. Read a low Kd as tighter binding. Consider `O=C(O)C[C@H](O)C(=O)O` [L-malate], for which the Kd on MCP2201 [1] is 995 ± 438 µM; at MCP2201 [2], 18.8 ± 7.45 µM.
